Measured values: US11912755B2, “Endostatin fragments and variants for use in treating fibrosis” (iBio, Inc., priority 2015, dated 2024)
Ends that are not written are not given here.

Legend:
[1] = tested on: TGF-β-induced dermal fibrosis in mouse skin; assay: In vivo TGF-β-induced dermal fibrosis in mouse skin
Procedure: In Vivo Mouse Experiments. CB57BL6/J male mice were purchased from The Jackson Laboratory (Bar Harbor, ME). Human rE (10 μg/ml) or Endostatin peptides (10 μg/ml) in combination with TGF-β (10 ng/ml), or TGF-β alone were injected intradermally on the back of mice in a total volume of 100 μl 1×PBS. Mice were injected in two different skin sites and sacrificed one week post-injection. Skin surrounding the injection site was harvested and fixed in 10% formalin prior to embedding in paraffin.
Measurement of Skin Dermal Thickness. Six μm sections of paraffin-embedded human and mouse skin tissues were stained with hematoxylin and eosin (H&E). In some experiments, sections were stained with Masson trichrome which identifies collagens. Images were taken on a Nikon Eclipse 800 microscope. The thickness of the dermis was measured in 6 random fields of each section using the image/J® software. Data are shown in arbitrary units.
E4, a peptide representing the carboxy terminus of human endostatin, can attenuate fibrosis triggered by multiple fibrogenic factors. The anti-fibrotic effects of E4 can be detected whether administered concomitantly with or following the fibrogenic trigger. The efficacy of E4 was confirmed in […] pre-clinical models of fibrosis: a) bleomycin-induced dermal fibrosis in vivo in mouse skin, b) TGF-β induced dermal fibrosis in mouse skin, and c) bleomycin-induced pulmonary fibrosis. E4 peptide or a control peptide (E1; representing the amino terminal region of endostatin) were administered at the same time as TGF-β or bleomycin or 3-4 days following TGF-β or bleomycin. Mice were sacrificed one and two weeks after TGF-β-initiation of dermal fibrosis, and two and three weeks after bleomycin-induced pulmonary fibrosis. Two different modes of administration of the E4 peptide were also tested. It was confirmed that intraperitoneal and intratracheal administration was effective. The amount of E4 that was administered was 10 μg/ml in a total volume of 100 μl for skin and IP injections and 50 μl for IT administration.
For these studies, fibrosis was assessed by measurement of dermal thickness on H&E skin sections (skin), assessment of collagen levels by Masson Trichrome staining (skin and lung), and measurement of collagen levels by Sircol assay (lung). Furthermore, to confirm the mechanism by which E4 exerts its anti-fibrotic effects, the production of extra-cellular matrix (ECM) components, the levels of enzymes that promote matrix stabilization and thus accumulation and levels of those that degrade ECM components, and levels of transcription factors downstream of the pro-fibrotic triggers were evaluated. Results were assessed using the unpaired t test and the 3-way ANOVA (for the ID1 data).

MMP-2 = assay: Gelatin zymography of MMP-2 in primary human lung fibroblasts; format: cell-based; conditions: for MMP-2 activity: E-4 following TGF-β
Source text: FIG. 14A-14B. FIG. 14A: E4 reduces fibrosis in vitro by inducing MMP-2 activity in primary human lung fibroblasts, thus resulting in increased degradation of collagen and other matrix proteins. […] Lane 1: Vehicle (DMSO); Lane 2: E-4; Lane 3: TGF-β; Lane 4: TGF-β followed by E4. FIG. 14B: Digital image showing that both total and active MMP-2 levels are increased in cells treated with TGF-β and E-4.

Substance: E4: SEQ ID NO: 21, amino acids 133-180 of human endostatin with a C-terminal amide (SYCETWRTEAPSATGQASSLLGGRLLGQSAASCHHAYIVLCIENSFMT-NH2; cysteine pairing not given here)
- TGF-β-induced dermal fibrosis (dermal thickness) ([1]; 10 μg/ml intradermal with TGF-β 10 ng/ml, one week): prevented
- TGF-β induced dermal fibrosis, delayed treatment ([1]; TGF-β day 1, peptide IP at day 3, harvested day 7): significant decrease
- MMP-2 activity (MMP-2): induction and activation
- MMP-2 activity (MMP-2; listed as E-4): increased MMP-2 activity
- total and active MMP-2 levels (MMP-2; cells treated with TGF-β and E-4): increased
